Experimental data published in patent publication US20260137819A1 (Radionetics Oncology, Inc., priority 2022, published 2026).

Target: T1, human follicle-stimulating hormone receptor (FSHR) (Homo sapiens, UniProt P23945)
T1 construct: host or cells: CHO-K1
T1 sequence (P23945 18-695): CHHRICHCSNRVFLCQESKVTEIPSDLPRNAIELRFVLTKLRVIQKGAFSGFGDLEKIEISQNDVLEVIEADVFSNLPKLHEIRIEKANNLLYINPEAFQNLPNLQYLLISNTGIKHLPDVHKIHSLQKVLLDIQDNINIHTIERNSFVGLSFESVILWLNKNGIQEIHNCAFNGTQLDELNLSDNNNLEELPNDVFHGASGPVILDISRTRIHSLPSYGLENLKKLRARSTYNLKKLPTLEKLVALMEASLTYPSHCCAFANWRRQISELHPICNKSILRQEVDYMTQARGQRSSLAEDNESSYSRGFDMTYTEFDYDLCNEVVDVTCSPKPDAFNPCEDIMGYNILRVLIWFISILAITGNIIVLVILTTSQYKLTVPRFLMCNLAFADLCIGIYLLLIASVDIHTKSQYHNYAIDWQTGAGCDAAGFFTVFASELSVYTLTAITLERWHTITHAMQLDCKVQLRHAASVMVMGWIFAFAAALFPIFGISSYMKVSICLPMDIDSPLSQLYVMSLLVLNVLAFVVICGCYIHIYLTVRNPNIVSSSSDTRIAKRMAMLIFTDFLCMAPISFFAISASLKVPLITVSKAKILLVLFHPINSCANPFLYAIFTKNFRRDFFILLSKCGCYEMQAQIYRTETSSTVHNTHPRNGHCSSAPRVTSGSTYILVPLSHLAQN
Assay: Measurement of agonist cAMP production by activation of human FSHR
Assay type: cell-based
Conditions: CHO-K1 human FSHR cells, 30 minutes at 37° C., HTRF cAMP kit; read-out: hFSHR Agonist cAMP EC50
Method in brief: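 cAMP output was measured by HTRF after 30 min at 37 °C agonist exposure (0–10,000 nM final) in stably FSHR-transfected CHO-K1 cells. Lysate cAMP was read off a standard curve and fitted to obtain half-maximal EC50.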

Structure (SMILES)	EC50 [nM]
COc1cc2c(cc1-c1cncc(NC(=O)CNC(=O)CC[C@@H](NC(=O)CN3CCN(CC(=O)O)CCN(CC(=O)O)CCN(CC(=O)O)CC3)C(=O)O)c1)-c1c(c(C(=O)N3CCOCC3(C)C)nn1-c1cc(F)cc(F)c1)CO2 [Compound 61, (R)-2,2′,2″-(10-(2-((1-carboxy-4-((2-((5-(1-(3,5-difluorophenyl)-3-(3,3-dimethylmorpholine-4-carbonyl)-7-methoxy-1,4-dihydrochromeno[4,3-c]pyrazol-8-yl)pyridin-3-yl)amino)-2-oxoethyl)amino)-4-oxobutyl)amino)-2-oxoethyl)-1,4,7,10-tetraazacyclododecane-1,4,7-triyl)triacetic acid]	10 to 100
COc1cc2c(cc1-c1cncc(NCCCNC(=O)CCOCCNC(=O)CN3CCN(CC(=O)O)CCN(CC(=O)O)CCN(CC(=O)O)CC3)c1)-c1c(c(C(=O)N3CCOCC3(C)C)nn1-c1cc(F)cc(F)c1)CO2 [Compound 62]	10 to 100
COc1cc2c(cc1-c1cccc(NCCOCCOCCOCCOCCNC(=O)[C@H](CS(=O)(=O)O)NC(=O)CN3CCN(CC(=O)O)CCN(CC(=O)O)CCN(CC(=O)O)CC3)c1)-c1c(c(C(=O)N3CCOCC3(C)C)nn1-c1cc(Cl)cc(Cl)c1)CO2 [Compound 71]	< 10
COc1cc2c(cc1-c1cccc(OCCCNC(=O)[C@@H](CCCNC(=N)N)NC(=O)CCNC(=O)CN3CCN(CC(=O)O)CCN(CC(=O)O)CCN(CC(=O)O)CC3)c1)-c1c(c(C(=O)N3CCOCC3(C)C)nn1-c1cc(Cl)cc(Cl)c1)CO2 [Compound 73]	< 10
COc1cc2c(cc1-c1cccc(OCCCNC(=O)[C@@H](CCC(=O)O)NCCOCCNC(=O)[C@H](CS(=O)(=O)O)NC(=O)CN3CCN(CC(=O)O)CCN(CC(=O)O)CCN(CC(=O)O)CC3)c1)-c1c(c(C(=O)N3CCOCC3(C)C)nn1-c1cc(Cl)cc(Cl)c1)CO2 [Compound 74, 2,2′,2″-(10-((4R,13R)-13-(2-carboxyethyl)-18-(3-(1-(3,5-dichlorophenyl)-3(3,3-dimethylmorpholine-4-carbonyl)-7-methoxy-1,4-dihydrochromeno[4,3-c]pyrazol-8-yl)phenoxy)-2,5,14-trioxo-4-(sulfomethyl)-9-oxa-3,6,12,15-tetraazaoctadecyl)-1,4,7,10-tetraazacyclododecane-1,4,7-triyl)triacetic acid--2,2,2-trifluoroacetic acid (1/1)]	10 to 100
COc1cc2c(cc1-c1cncc(OCCOCCOCCOCCOCCNC(=O)[C@H](CS(=O)(=O)O)NC(=O)CN3CCN(CC(=O)O)CCN(CC(=O)O)CCN(CC(=O)O)CC3)c1)-c1c(c(C(=O)N3CCCN(C(=O)C4CCC4)CC3)nn1-c1cccs1)CO2 [Compound 76, (R)-2,2′,2″-(10-(20-((5-(3-(4-(cyclobutanecarbonyl)-1,4-diazepane-1carbonyl)-7-methoxy-1-(thiophen-2-yl)-1,4-dihydrochromeno[4,3-c]pyrazol-8-yl)pyridin-3-yl)oxy)-2,5-dioxo-4-(sulfomethyl)-9,12,15,18-tetraoxa-3,6-diazaicosyl)-1,4,7,10-tetraazacyclododecane-1,4,7-triyl)triacetic acid]	10 to 100
COc1cc2c(cc1-c1cncc(OCCCNC(=O)[C@@H](CCC(=O)O)NC(=O)CCNC(=O)CN3CCN(CC(=O)O)CCN(CC(=O)O)CCN(CC(=O)O)CC3)c1)-c1c(c(C(=O)N3CCCN(C(=O)C4CCC4)CC3)nn1-c1cccs1)CO2 [Compound 77]	10 to 100
COc1cc2c(cc1-c1cncc(OCCCNC(=O)[C@@H](CCCNC(=N)N)NC(=O)CCNC(=O)CN3CCN(CC(=O)O)CCN(CC(=O)O)CCN(CC(=O)O)CC3)c1)-c1c(c(C(=O)N3CCCN(C(=O)C4CCC4)CC3)nn1-c1cccs1)CO2 [Compound 78, (R)-2,2′,2″-(10-(2-((3-((1-((3-((5-(3-(4-(cyclobutanecarbonyl)-1,4-diazepane-1carbonyl)-7-methoxy-1-(thiophen-2-yl)-1,4-dihydrochromeno|4,3-c|pyrazol-8-yl)pyridin-3-yl)oxy)propyl)amino)-5-guanidino-1-oxopentan-2-yl)amino)-3-oxopropyl)amino)-2-oxoethyl)-1,4,7,10-tetraazacyclododecane-1,4,7-triyl)triacetic acid--2,2,2-trifluoroacetic acid (1/1)]	< 10
COc1cc2c(cc1-c1cncc(NC(=O)CCOCCOCCOCCOCCNC(=O)[C@H](CS(=O)(=O)O)NC(=O)CN3CCN(CC(=O)O)CCN(CC(=O)O)CCN(CC(=O)O)CC3)c1)-c1c(c(C(=O)N3CCOCC3(C)C)nn1-c1cc(Cl)cc(Cl)c1)CO2 [Compound 80]	10 to 100
COc1cc2c(cc1-c1cncc(NC(=O)CCCNC(=O)[C@@H](CCCNC(=N)N)NC(=O)CCNC(=O)CN3CCN(CC(=O)O)CCN(CC(=O)O)CCN(CC(=O)O)CC3)c1)-c1c(c(C(=O)N3CCOCC3(C)C)nn1-c1cc(Cl)cc(Cl)c1)CO2 [Compound 81, (R)-2,2′,2″-(10-(2-((3-((1-((4-((5-(1-(3,5-dichlorophenyl)-3-(3,3dimethylmorpholine-4-carbonyl)-7-methoxy-1,4-dihydrochromeno|4,3-clpyrazol-8-yl)pyridin-3-yl)amino)-4-oxobutyl)amino)-5-guanidino-1-oxopentan-2-yl)amino)-3-oxopropyl)amino)-2-oxoethyl)-1,4,7,10-tetraazacyclododecane-1,4,7-triyl)triacetic acid--2,2,2-trifluoroacetic acid (1/1)]	< 10

Second part, the molecule after the results:

EC50 [nM]	Structure (SMILES)
10 to 100	COc1cc2c(cc1-c1cccc(NC(=O)C3CCC(CNC(=O)C(CS(=O)(=O)O)NC(=O)CN4CCN(CC(=O)O)CCN(CC(=O)O)CCN(CC(=O)O)CC4)CC3)c1)-c1c(c(C(=O)N3CCOCC3(C)C)nn1-c1cc(Cl)cc(Cl)c1)CO2 [Compound 65, 2,2′,2″-(10-(2-(((R)-1-((((1r,4R)-4-((3-(1-(3,5-dichlorophenyl)-3-(3,3-dimethylmorpholine-4-carbonyl)-7-methoxy-1,4-dihydrochromeno[4,3-c]pyrazol-8-yl)phenyl)carbamoyl)cyclohexyl)methyl)amino)-1-oxo-3-sulfopropan-2-yl)amino)-2-oxoethyl)-1,4,7,10-tetraazacyclododecane-1,4,7-triyl)triacetic acid]
10 to 100	COc1cc2c(cc1-c1cccc(NC(=O)CN3CCC(NC(=O)[C@H](CS(=O)(=O)O)NC(=O)CN4CCN(CC(=O)O)CCN(CC(=O)O)CCN(CC(=O)O)CC4)CC3)c1)-c1c(c(C(=O)N3CCOCC3(C)C)nn1-c1cc(Cl)cc(Cl)c1)CO2 [Compound 66]
< 10	COc1cc2c(cc1-c1cncc(NCCOCCOCCOCCOCCNC(=O)[C@H](CS(=O)(=O)O)NC(=O)CN3CCN(CC(=O)O)CCN(CC(=O)O)CCN(CC(=O)O)CC3)c1)-c1c(c(C(=O)N3CCOCC3(C)C)nn1-c1cc(Cl)cc(Cl)c1)CO2 [Compound 67, (R)-2,2′,2″-(10-(20-((5-(1-(3,5-dichlorophenyl)-3-(3,3-dimethylmorpholine-4carbonyl)-7-methoxy-1,4-dihydrochromeno|4,3-c|pyrazol-8-yl)pyridin-3-yl)amino)-2,5-dioxo-4-(sulfomethyl)-9,12,15,18-tetraoxa-3,6-diazaicosyl)-1,4,7,10-tetraazacyclododecane-1,4,7-triyl)triacetic acid--2,2,2-trifluoroacetic acid (1/1)]
< 10	COc1cc2c(cc1-c1cncc(OCCOCCOCCOCCOCCNC(=O)[C@H](CS(=O)(=O)O)NC(=O)CN3CCN(CC(=O)O)CCN(CC(=O)O)CCN(CC(=O)O)CC3)c1)-c1c(c(C(=O)N3CCOCC3(C)C)nn1-c1cc(Cl)cc(Cl)c1)CO2 [Compound 68, (R)-2,2′,2″-(10-(20-((5-(1-(3,5-dichlorophenyl)-3-(3,3-dimethylmorpholine-4carbonyl)-7-methoxy-1,4-dihydrochromeno|4,3-c|pyrazol-8-yl)pyridin-3-yl)oxy)-2,5-dioxo-4-(sulfomethyl)-9,12,15,18-tetraoxa-3,6-diazaicosyl)-1,4,7,10-tetraazacyclododecane-1,4,7-triyl)triacetic acid]
< 10	COc1cc2c(cc1-c1cccc(NC(=O)CCOCCOCCNC(=O)[C@H](CS(=O)(=O)O)NC(=O)CN3CCN(CC(=O)O)CCN(CC(=O)O)CCN(CC(=O)O)CC3)c1)-c1c(c(C(=O)N3CCOCC3(C)C)nn1-c1cc(Cl)cc(Cl)c1)CO2 [Compound 69]
10 to 100	COc1cc2c(cc1-c1cncc(COCCOCCOCCOCCNC(=O)[C@H](CS(=O)(=O)O)NC(=O)CN3CCN(CC(=O)O)CCN(CC(=O)O)CCN(CC(=O)O)CC3)c1)-c1c(c(C(=O)N3CCOCC3(C)C)nn1-c1cc(Cl)cc(Cl)c1)CO2 [Compound 72, (R)-2,2′,2″-(10-(1-(5-(1-(3,5-dichlorophenyl)-3-(3,3-dimethylmorpholine-4carbonyl)-7-methoxy-1,4-dihydrochromeno|4,3-c|pyrazol-8-yl)pyridin-3-yl)-15,18-dioxo-16-(sulfomethyl)-2,5,8,11-tetraoxa-14,17-diazanonadecan-19-yl)-1,4,7,10-tetraazacyclododecane-1,4,7-triyl)triacetic acid]
10 to 100	COc1cc2c(cc1-c1cccc(OCCOCCOCCOCCOCCNC(=O)[C@H](CS(=O)(=O)O)NC(=O)CN3CCN(CC(=O)O)CCN(CC(=O)O)CCN(CC(=O)O)CC3)c1)-c1c(c(C(=O)N3CC(=O)NCC3(C)C)nn1-c1cc(Cl)cc(Cl)c1)CO2 [Compound 75]
